Measured values taken from EP2958919B1, “DIHYDROPTERIDINONES I” (Boehringer Ingelheim International GmbH, priority 2013, dated 2014).

Experiments:
Aβ42 = Aβ42 cellular assay in H4 neuroglioma cells stably expressing human APP695 (electrochemiluminescence, Meso Scale Discovery); assay type: cell-based; conditions: 22 hours incubation, supernatant
Method: (§1) Cells were plated out to near confluency. The compounds to be tested were received as 10 mM stocks in 100% DMSO. A dilution series was initially generated in 100% DMSO and then diluted 200-fold in cell culture media such that the tested concentration range was 30 µM to 0.1 nM and the final DMSO concentration was 0.5%. The diluted compounds were incubated with the cells for 22 hours in an incubator at 37°C and 5% CO2. Aβ42 as well as Aβ total levels were then measured post-incubation from the supernatant of the cells. Aβ42 levels were determined using a specific electrochemiluminescence assay provided by Meso Scale Discovery (Catalog # L21CA-1) according to the manufacturer's protocol. Aβ total levels were likewise determined using a specific electrochemiluminescence assay provided by Meso Scale Discovery (Catalog # L21ZA-1) according to the manufacturer's protocol.
(§2) In order to absolutely define the described compounds as modulators of γ-Secretase as opposed to simply inhibitors of γ-Secretase, measurements of not only Aβ42 but also Aβ total are performed.

Aβ total = Aβ total cellular assay in H4 neuroglioma cells stably expressing human APP695 (electrochemiluminescence), used for the ratio Aβ total IC50 / Aβ42 IC50; assay type: cell-based; conditions: higher ratio = more specific inhibition of Aβ42
Method: as §1, §2

`CCc1nc(Nc2ccc(-n3cnc(C)c3)c(OC)c2)nc2c1NC(=O)C1CC(OC)CCN21` (racemic) [Example 20] was tested, and the IC50 (Aβ42) was 223 nM and the “Ratio Aβ(total)/Aβ42” value (Aβ total) was 30.

For `CCc1nc(Nc2ccc(-n3cnc(C)c3)c(OC)c2)nc2c1N(C)C(=O)C1CC(OC)CCN21` (racemic) [Example 21], the IC50 (Aβ42) was 105 nM and the “Ratio Aβ(total)/Aβ42” value (Aβ total) was 98.

`CCc1nc(Nc2ccc(-n3cnc(C)c3)c(OC)c2)nc2c1NC(=O)[C@H]1[C@@H](c3ccc(F)cc3)CCN21` (racemic) [Example 22] was tested, and the IC50 (Aβ42) was 818 nM and the “Ratio Aβ(total)/Aβ42” value (Aβ total) was 71.

In the case of `CCc1nc(Nc2ccc(-n3cnc(C)c3)c(OC)c2)nc2c1N(C)C(=O)[C@H]1[C@H](c3ccc(F)cc3)CCN21` (racemic) [Example 23], the IC50 (Aβ42) is reported as 70 nM and the “Ratio Aβ(total)/Aβ42” value (Aβ total) is reported as 90.

With `CCc1nc(Nc2ccc(-n3cnc(C)c3)c(OC)c2)nc2c1NC(=O)[C@@]1(C)[C@@H](OC)CN21` (racemic) [Example 27] the IC50 (Aβ42) was 360 nM and the “Ratio Aβ(total)/Aβ42” value (Aβ total) was 70.

In the case of `CCN1C(=O)C2CCCCCN2c2nc(Nc3ccc(-n4cnc(C)c4)c(OC)c3)ncc21` (centres unmarked) [Example 1], the IC50 (Aβ42) is reported as 48 nM and the “Ratio Aβ(total)/Aβ42” value (Aβ total) is reported as 127.

`COc1cc(Nc2ncc3c(n2)N2CCCCCC2C(=O)N3C)ccc1-n1cnc(C)c1` (centres unmarked) [Example 2] was tested, and the IC50 (Aβ42) was 97 nM and the “Ratio Aβ(total)/Aβ42” value (Aβ total) was 59.

For `CCN1C(=O)C2CCCCCN2c2nc(Nc3ccc(-c4ccnc(C)c4)cc3)ncc21` (centres unmarked) [Example 3], the IC50 (Aβ42) was 398 nM and the “Ratio Aβ(total)/Aβ42” value (Aβ total) was 17.

For `CCCN1C(=O)C2CCCCCN2c2nc(Nc3ccc(-n4cnc(C)c4)c(OC)c3)ncc21` (centres unmarked) [Example 4], the IC50 (Aβ42) was 113 nM and the “Ratio Aβ(total)/Aβ42” value (Aβ total) was 44.

`COc1cc(Nc2ncc3c(n2)N2CCCCCC2C(=O)N3C(C)C)ccc1-n1cnc(C)c1` (centres unmarked) [Example 5-1] was tested, and the IC50 (Aβ42) was 72 nM and the “Ratio Aβ(total)/Aβ42” value (Aβ total) was 109.

With `CCN1C(=O)C2CCCCCN2c2nc(Nc3ccc(-n4ccnc4)c(OC)c3)ncc21` (centres unmarked) [Example 5-2] the IC50 (Aβ42) was 175 nM and the “Ratio Aβ(total)/Aβ42” value (Aβ total) was 64.

For `CCN1C(=O)C2CCCCCN2c2nc(Nc3ccc(-n4cnc(C)n4)c(OC)c3)ncc21` (centres unmarked) [Example 5-3], the IC50 (Aβ42) was 265 nM and the “Ratio Aβ(total)/Aβ42” value (Aβ total) was 101.

`CCN1C(=O)C2CCCCCN2c2nc(Nc3cnc(-n4cnc(C)c4)c(OC)c3)ncc21` (centres unmarked) [Example 5-4] was tested, and the IC50 (Aβ42) was 172 nM and the “Ratio Aβ(total)/Aβ42” value (Aβ total) was greater than 175.

In the case of `CCN1C(=O)C2CCCCCN2c2nc(Nc3ccc(-c4cnc(C)s4)c(OC)c3)ncc21` (centres unmarked) [Example 5-5], the IC50 (Aβ42) is reported as 711 nM and the “Ratio Aβ(total)/Aβ42” value (Aβ total) is reported as 13.

In the case of `CCN1C(=O)C2CCCCCN2c2nc(Nc3ccc(-n4cnc(C)c4)cc3)ncc21` (centres unmarked) [Example 5-6], the IC50 (Aβ42) is reported as 704 nM and the “Ratio Aβ(total)/Aβ42” value (Aβ total) is reported as 43.

`CCN1C(=O)C2CCCCCN2c2nc(Nc3ccc(-n4cnc(C)c4)cc3OC)ncc21` (centres unmarked) [Example 5-7] was tested, and the IC50 (Aβ42) was 11400 nM and the “Ratio Aβ(total)/Aβ42” value (Aβ total) was 3.

For `CCCN1C(=O)C2CCCCCN2c2nc(Nc3ccc(-c4ccnc(C)c4)cc3)ncc21` (centres unmarked) [Example 5], the IC50 (Aβ42) was 720 nM and the “Ratio Aβ(total)/Aβ42” value (Aβ total) was 14.

In the case of `CCc1nc(Nc2ccc(-n3cnc(C)c3)c(OC)c2)nc2c1N(C)C(=O)C1CCCN21` (centres unmarked) [Example 6], the IC50 (Aβ42) is reported as 84 nM and the “Ratio Aβ(total)/Aβ42” value (Aβ total) is reported as 96.

In the case of `CCc1nc(Nc2ccc(-n3cnc(C)c3)c(OC)c2)nc2c1NC(=O)C1CCCN21` (centres unmarked) [Example 7], the IC50 (Aβ42) is reported as 96 nM and the “Ratio Aβ(total)/Aβ42” value (Aβ total) is reported as 98.

In the case of `CCc1nc(Nc2ccc(-c3ccnc(C)c3)cc2)nc2c1N(C)C(=O)C1CCCN21` (centres unmarked) [Example 8], the IC50 (Aβ42) is reported as 293 nM and the “Ratio Aβ(total)/Aβ42” value (Aβ total) is reported as 62.

`CCc1nc(Nc2ccc(-c3cnc(C)o3)nc2)nc2c1N(C)C(=O)C1CCCN21` (centres unmarked) [Example 9] was tested, and the IC50 (Aβ42) was 1230 nM and the “Ratio Aβ(total)/Aβ42” value (Aβ total) was greater than 24.

With `CCc1nc(Nc2ccc(-c3cnc(C)o3)c(OC)c2)nc2c1N(C)C(=O)C1CCCN21` (centres unmarked) [Example 10] the IC50 (Aβ42) was 149 nM and the “Ratio Aβ(total)/Aβ42” value (Aβ total) was 189.

In the case of `COc1cc(Nc2ncc3c(n2)N2CCCC2C(=O)N3C)ccc1-n1cnc(C)c1` (centres unmarked) [Example 11], the IC50 (Aβ42) is reported as 97 nM and the “Ratio Aβ(total)/Aβ42” value (Aβ total) is reported as greater than 310.

`COc1cc(Nc2ncc3c(n2)N2CCCC2C(=O)N3C)ccc1-n1cnc(C)n1` (centres unmarked) [Example 12-1] was tested, and the IC50 (Aβ42) was 2940 nM and the “Ratio Aβ(total)/Aβ42” value (Aβ total) was greater than 10.

With `CN1C(=O)C2CCCN2c2nc(Nc3ccc(-c4cnn(C)c4)nc3)ncc21` (centres unmarked) [Example 12-2] the IC50 (Aβ42) was 5750 nM and the “Ratio Aβ(total)/Aβ42” value (Aβ total) was greater than 5.

With `Cc1cn(-c2ccc(Nc3ncc4c(n3)N3CCCC3C(=O)N4C)cc2F)cn1` (centres unmarked) [Example 12-3] the IC50 (Aβ42) was 1100 nM and the “Ratio Aβ(total)/Aβ42” value (Aβ total) was greater than 27.

With `COc1cc(Nc2ncc3c(n2)N2CCCC2C(=O)N3C)ccc1-n1ncnc1C` (centres unmarked) [Example 12-4] the IC50 (Aβ42) was 754 nM and the “Ratio Aβ(total)/Aβ42” value (Aβ total) was greater than 39.

In the case of `COc1cc(Nc2ncc3c(n2)N2CCCC2(C)C(=O)N3C)ccc1-n1cnc(C)c1` (centres unmarked) [Example 12], the IC50 (Aβ42) is reported as 160 nM and the “Ratio Aβ(total)/Aβ42” value (Aβ total) is reported as 147.

In the case of `COc1cc(Nc2nc(SC)c3c(n2)N2CCCCC2C(=O)N3C)ccc1-n1cnc(C)c1` (centres unmarked) [Example 13], the IC50 (Aβ42) is reported as 420 nM and the “Ratio Aβ(total)/Aβ42” value (Aβ total) is reported as 14.

`CCc1nc(Nc2ccc(-n3cnc(C)c3)c(OC)c2)nc2c1N(C)C(=O)[C@@H]1C[C@@H](OC)CN21` [Example 14] was tested, and the IC50 (Aβ42) was 97 nM and the “Ratio Aβ(total)/Aβ42” value (Aβ total) was 67.

For `CCc1nc(Nc2ccc(-n3cnc(C)c3)c(C#N)c2)nc2c1N(C)C(=O)[C@@H]1C[C@@H](OC)CN21` [Example 15], the IC50 (Aβ42) was 145 nM and the “Ratio Aβ(total)/Aβ42” value (Aβ total) was 36.

In the case of `CCc1nc(Nc2ccc(-n3cnc(C)c3)c(C#N)c2)nc2c1NC(=O)[C@@H]1C[C@@H](OC)CN21` [Example 16], the IC50 (Aβ42) is reported as 222 nM and the “Ratio Aβ(total)/Aβ42” value (Aβ total) is reported as 33.

For `CCc1nc(Nc2ccc(-n3cnc(C)c3)c(OC)c2)nc2c1NC(=O)[C@@H]1C[C@@H](OC)CN21` [Example 17], the IC50 (Aβ42) was 299 nM and the “Ratio Aβ(total)/Aβ42” value (Aβ total) was 68.

`CCc1nc(Nc2ccc(-c3cnc(C)o3)c(OC)c2)nc2c1N(C)C(=O)[C@@H]1C[C@@H](OC)CN21` [Example 18] was tested, and the IC50 (Aβ42) was 140 nM and the “Ratio Aβ(total)/Aβ42” value (Aβ total) was 215.

In the case of `CCc1nc(Nc2ccc(-n3cnc(C)c3)c(OC)c2)nc2c1N(CCOC)C(=O)[C@@H]1C[C@@H](OC)CN21` [Example 19-1], the IC50 (Aβ42) is reported as 201 nM and the “Ratio Aβ(total)/Aβ42” value (Aβ total) is reported as 131.

In the case of `CCc1nc(Nc2ccc(-c3cnc(C)o3)c(OC)c2)nc2c1NC(=O)[C@@H]1C[C@@H](OC)CN21` [Example 19], the IC50 (Aβ42) is reported as 364 nM and the “Ratio Aβ(total)/Aβ42” value (Aβ total) is reported as 82.

With `CCc1nc(Nc2ccc(-n3cnc(C)c3)c(OC)c2)nc2c1N(C)C(=O)[C@@]1(C)C[C@@H](OC)CN21` [Example 24] the IC50 (Aβ42) was 166 nM and the “Ratio Aβ(total)/Aβ42” value (Aβ total) was 181.

`CCc1nc(Nc2ccc(-n3cnc(C)c3)c(OC)c2)nc2c1N(C)C(=O)[C@]1(C)C[C@@H](OC)CN21` [Example 25] was tested, and the IC50 (Aβ42) was 145 nM and the “Ratio Aβ(total)/Aβ42” value (Aβ total) was 73.

For `COc1cc(Nc2nc(CC(C)C)c3c(n2)N2C[C@H](OC)C[C@]2(C)C(=O)N3C)ccc1-n1cnc(C)c1` [Example 26], the IC50 (Aβ42) was 63 nM and the “Ratio Aβ(total)/Aβ42” value (Aβ total) was 253.

In the case of `CCc1nc(Nc2ccc(-n3cnc(C)c3)c(OC)c2)nc2c1NC(=O)C1COCCN21` (centres unmarked) [Example 28], the IC50 (Aβ42) is reported as 272 nM and the “Ratio Aβ(total)/Aβ42” value (Aβ total) is reported as 29.

In the case of `CCc1nc(Nc2ccc(-n3cnc(C)c3)c(OC)c2)nc2c1N(C)C(=O)C1COCCN21` (centres unmarked) [Example 29], the IC50 (Aβ42) is reported as 231 nM and the “Ratio Aβ(total)/Aβ42” value (Aβ total) is reported as 76.

In the case of `COc1cc(Nc2ncc3c(n2)N2CCCOCC2C(=O)N3)ccc1-n1cnc(C)c1` (centres unmarked) [Example 30], the IC50 (Aβ42) is reported as 312 nM and the “Ratio Aβ(total)/Aβ42” value (Aβ total) is reported as 96.

`COc1cc(Nc2ncc3c(n2)N2CCCOC2(C)C(=O)N3C)ccc1-n1cnc(C)c1` (centres unmarked) [Example 31] was tested, and the IC50 (Aβ42) was 540 nM and the “Ratio Aβ(total)/Aβ42” value (Aβ total) was 55.

For `COc1cc(Nc2nc(C(C)C)c3c(n2)N2CCCC2C(=O)N3C)ccc1-n1cnc(C)c1` (centres unmarked) [Example 32], the IC50 (Aβ42) was 134 nM and the “Ratio Aβ(total)/Aβ42” value (Aβ total) was 66.

In the case of `COc1cc(Nc2nc(CC(C)C)c3c(n2)N2CCCC2C(=O)N3C)ccc1-n1cnc(C)c1` (centres unmarked) [Example 33], the IC50 (Aβ42) is reported as 76 nM and the “Ratio Aβ(total)/Aβ42” value (Aβ total) is reported as 171.

`CC(C)Cc1nc(Nc2ccc(-c3cnn(C)c3)cc2)nc2c1N(C)C(=O)C1CCCN21` (centres unmarked) [Example 34] was tested, and the IC50 (Aβ42) was 928 nM and the “Ratio Aβ(total)/Aβ42” value (Aβ total) was 30.

With `Cc1cn(-c2ccc(Nc3nc(CC(C)C)c4c(n3)N3CCCC3C(=O)N4C)cc2C#N)cn1` (centres unmarked) [Example 35] the IC50 (Aβ42) was 126 nM and the “Ratio Aβ(total)/Aβ42” value (Aβ total) was 71.

`CCc1nc(Nc2ccc(-n3cnc(C)c3)c(OC)c2)nc2c1N(C)C(=O)C1CCCCN21` (centres unmarked) [Example 36] was tested, and the IC50 (Aβ42) was 64 nM and the “Ratio Aβ(total)/Aβ42” value (Aβ total) was 86.

In the case of `COc1cc(Nc2nc(C(C)C)c3c(n2)N2CCN(C(=O)OC(C)(C)C)CC2C(=O)N3C)ccc1-n1cnc(C)c1` (centres unmarked) [Example 37], the IC50 (Aβ42) is reported as 320 nM and the “Ratio Aβ(total)/Aβ42” value (Aβ total) is reported as 12.
